Measured values taken from patent US12635718B2, “Flavanone derivatives and their use as sweetness enhancers” (Firmenich SA, priority 2019, dated 2026).

How the values were obtained:
[1] = system: taste panelists; test: Taste panel rating of sweetness and licorice taste of 5% sucrose solutions; format: in vivo, human; details: scale 0 to 10, no enhancer 5.0
Procedure: A test compound, (2R,3R)-3-acetoxy-5,7,4′-trihydroxyflavanone (A01), was tested in comparison to naringenin for its sweetness enhancement of a 5% (w/w) aqueous solution of sucrose. Taste panelists were asked to taste the following 5% sucrose solutions in Henniez water and rate their sweetness on a scale from 0 to 10, and to rate the presence of any licorice taste in the sample on a scale from 0 to 10.
The test compound A01 was tested in comparison to other sweetness enhancers in a similar test to that set forth in Example 1. The comparative compounds are taxifolin 3-O-acetate (A02), and ampelopsin 3-O-acetate (A03).

[2] = system: panelists; test: Sweetener replacement test: panel choice between beverages (rebaudioside M, sucralose); format: in vivo, human; details: for Panelists (of 45) who selected the beverage with test compound: statistical equivalence
Excerpt: In one test, 45 panelists were asked to select between a beverage sweetened with 450 ppm rebaudioside M and a beverage with 300 ppm rebaudioside M and 12 ppm test compound A01. Of the 45 panelists, 23 selected the former, and 22 selected the latter, which is a statistical equivalence. […] In another test, 45 panelists were asked to select between a beverage sweetened with 160 ppm sucralose and a beverage with 120 ppm sucralose and 12 ppm test compound A01. Of the 45 panelists, 22 selected the former, and 23 selected the latter, which is a statistical equivalence.

[3] = +20 ppm in 5% sucrose solution (Table 2)

| Structure (SMILES) | Sweetness (0-10) [1, 3] | Reduction in concentration of sucralose permitted ([2]; 12 ppm test compound, 160 ppm to 120 ppm sucralose) [%] | Reduction in concentration of rebaudioside M permitted ([2]; 12 ppm test compound, 450 ppm to 300 ppm rebaudioside M) [%] | Panelists (of 45) who selected the beverage with test compound ([2]; 120 ppm sucralose + 12 ppm A01 versus 160 ppm sucralose) | Panelists (of 45) who selected the beverage with test compound ([2]; 300 ppm rebaudioside M + 12 ppm A01 versus 450 ppm rebaudioside M) | Sweetness (0-10) ([1]; +5 ppm in 5% (w/w) sucrose solution in Henniez water) | Sweetness (0-10) ([1]; +10 ppm in 5% (w/w) sucrose solution in Henniez water) | Sweetness (0-10) ([1]; +50 ppm in 5% (w/w) sucrose solution in Henniez water) |
| --- | --- | --- | --- | --- | --- | --- | --- | --- |
| CC(=O)OC1C(=O)c2c(O)cc(O)cc2OC1c1cc(O)c(O)c(O)c1 (stereo not drawn) [A03, ampelopsin 3-O-acetate, reference compound] | 5.1 |  |  |  |  |  |  |  |
| CC(=O)O[C@H]1C(=O)c2c(O)cc(O)cc2O[C@@H]1c1ccc(O)cc1 [A01, (2R,3R)-3-acetoxy-5,7,4′-trihydroxyflavanone] | 8.8 | 25 | 33 | 23 | 22 | 7.0 | 8.0 |  |
| O=C1C[C@@H](c2ccc(O)cc2)Oc2cc(O)cc(O)c21 [naringenin, reference compound] |  |  |  |  |  |  |  | 5.8 |
